The record followed here is PMC8151276, “An Integrated Approach toward NanoBRET Tracers for Analysis of GPCR Ligand Engagement” (Molecules, 2021).

Assay type in all cases: binding
Experiment [1] has as its target T1, GRM2 (Homo sapiens, UniProt Q14416).
T1 construct: purchased Promega (in-house HiBiT-GPCR construct library, NanoBRET)
The experiment is described as follows: NanoBRET screen HiBiT-GRM2 in HEK293. The protocol:
(§1) Each tracer candidate was screened across the entire library of HiBiT-GPCR constructs using NanoBRET as the detection modality. As depicted in Figure 4A, the specificity of interactions was evaluated through decrease in BRET due to competitive displacement of a bound tracer by excess parental compound. Each tracer was analyzed for binding to each HiBiT-GPCR fusion in the absence and in the presence of competing parental compound. Briefly, HEK293 cells were transfected with HiBiT-GPCR constructs diluted into promoterless DNA to reduce expression and maximize translocation to the cell surface. Each tracer candidate was then screened at concentrations of 1 μM and 0.1 μM across cells expressing these fusions. Cells were treated for 1.5 h with tracer either alone or in the presence of 20 μM competing parental compound (i.e., control). BRET was measured upon addition of purified LgBiT and subsequent complementation with HiBiT genetically fused to a GPCR. The specificity of interactions was assessed through a decrease in BRET signal due to competitive displacement of the bound tracer. To further gauge the robustness of these interactions, the fold response over the control (i.e., BRETtracer/BRETcontrol) was calculated. We chose a 1.5-fold response, which translates to ≥7-fold signal over noise as the minimal threshold required to score an interaction as positive. […]. Below we highlight the screening results obtained for our exemplary fluorescent tracers based on Clozapine, Amitriptyline and AZD1283.
(§2) HiBiT-GPCR DNA constructs were diluted in 10 mM Tris pH 8 to a final concentration of 0.01 μg/μL, arrayed in 96-well plates and stored at −20 °C. For transfection, HEK293 cells were suspended in Opti-MEM (without phenol red) supplemented with 2% fetal bovine serum (Seradigm) and 100 units/mL penicillin–streptomycin (Gibco) at a final concentration of 220,000 cells/mL and dispensed into white 96-well plates at 90 μL/well. Subsequent transfections and screens were carried using an Agilent Bravo Automated Liquid Handling Platform. First, the 96-well HiBiT DNA arrays were diluted 25-fold in Opti-MEM (without serum or phenol red) to a final concentration of 0.0004 μg/μL and 20 μL of the diluted DNAs were transferred into new 96-well plates. Next, promoterless carrier DNA (1 μg/μL) was diluted 25-fold (0.04 μg/μL) and then dispensed into the diluted arrays at 20 μL/well. Following brief mixing, Viafect transfection reagent (Promega) diluted 16-fold into Opti-MEM was dispensed into the plates at 40 μL/well. After mixing by pipetting, plates were incubated for 10 min on the pipetting station deck. The DNA-transfection reagent complexes were then added to plates containing cells. To facilitate the screen, 10 μL of DNA-transfection reagent complexes were added in duplicates to the top 4 and bottom 4 rows, resulting in two identical 48-well arrays per plate. Plates with transfected cells were incubated for 18–20 h at 37 °C/5% CO2. A screen of each tracer across the entire library using two different concentrations requires duplicate plates of transfected cells. Depending on the number of tracers being screened, transfections can be scaled up using the same ratios. The next day, for each tracer, four 20× screening solutions in tracer dilution buffer (Promega) were prepared: two duplicates at final concentration of 20 μM and two duplicates at a final concentration of 2 μM. A competing unmodified compound was added to one of each duplicate at a final concentration of 400 μM. The four resulting solutions were diluted 4-fold in Opti-MEM without serum or phenol red to generate 5× solutions (5 µM and 0.5 µM tracer +/− 100 μM competing compound). To screen the library, a BioTek MultiFlo FX liquid dispenser was used to dispense 22.5 µL of tracer solution to the top 4 rows and 22.5 µL tracer + competing compound solution to the 4 bottom rows. Plates were briefly mixed on an orbital shaker and incubated for 1.5 h at room temperature. […]

Experiment [2] addresses T2, P2RY12 (Homo sapiens, UniProt Q9H244).
T2 construct: purchased Promega (in-house HiBiT-GPCR construct library, NanoBRET)
The experiment is described as follows: NanoBRET screen HiBiT-P2RY12 in HEK293. The protocol: as §1, §2
In general terms: Bioluminescence resonance energy transfer reports proximity on the nanometre scale.

For experiment [3], the target named is T3, P2RY1 (Homo sapiens, UniProt P47900).
T3 construct: purchased Promega (in-house HiBiT-GPCR construct library, NanoBRET)
T3 sequence (P47900 whole entry): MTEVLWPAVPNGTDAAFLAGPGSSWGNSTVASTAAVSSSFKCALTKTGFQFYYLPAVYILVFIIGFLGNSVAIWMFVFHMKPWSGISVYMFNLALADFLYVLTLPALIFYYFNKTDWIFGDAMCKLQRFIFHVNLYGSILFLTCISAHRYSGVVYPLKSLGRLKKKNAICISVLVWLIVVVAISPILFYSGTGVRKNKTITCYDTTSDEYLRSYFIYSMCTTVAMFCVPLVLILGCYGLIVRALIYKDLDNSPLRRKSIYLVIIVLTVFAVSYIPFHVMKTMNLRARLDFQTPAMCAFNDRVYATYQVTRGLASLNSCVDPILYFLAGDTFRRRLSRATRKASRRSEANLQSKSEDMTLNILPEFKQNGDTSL
Put plainly: NanoBRET screen HiBiT-P2RY1 in HEK293. The protocol:
as §1, §2

Experiment [4] has as its target T4, HRH4 (Homo sapiens, UniProt Q9H3N8).
T4 construct: purchased Promega (in-house HiBiT-GPCR construct library, NanoBRET)
The experiment is described as follows: NanoBRET screen HiBiT-HRH4 in HEK293. The protocol: as §1, §2

In experiment [5] the target is T5, HCRTR1 (Homo sapiens, UniProt O43613).
T5 construct: purchased Promega (in-house HiBiT-GPCR construct library, NanoBRET)
T5 sequence (O43613 1-425): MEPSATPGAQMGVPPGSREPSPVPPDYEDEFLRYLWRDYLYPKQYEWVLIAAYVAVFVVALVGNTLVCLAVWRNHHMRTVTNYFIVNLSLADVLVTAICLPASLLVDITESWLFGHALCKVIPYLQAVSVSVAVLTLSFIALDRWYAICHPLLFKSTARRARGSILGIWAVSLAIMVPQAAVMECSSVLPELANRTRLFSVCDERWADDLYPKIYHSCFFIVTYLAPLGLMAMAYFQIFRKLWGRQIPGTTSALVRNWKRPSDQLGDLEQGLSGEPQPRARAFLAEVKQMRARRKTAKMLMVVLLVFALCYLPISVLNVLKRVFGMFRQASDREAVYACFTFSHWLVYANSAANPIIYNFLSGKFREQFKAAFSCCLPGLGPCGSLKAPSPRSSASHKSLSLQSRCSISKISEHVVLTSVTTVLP
The experiment is described as follows: NanoBRET screen HiBiT-HCRTR1 in HEK293. The protocol: as §1, §2

Experiment [6] has as its target T6, CX3CR1 (Homo sapiens, UniProt P49238).
T6 construct: purchased Promega (in-house HiBiT-GPCR construct library, NanoBRET)
T6 sequence (P49238 1-355): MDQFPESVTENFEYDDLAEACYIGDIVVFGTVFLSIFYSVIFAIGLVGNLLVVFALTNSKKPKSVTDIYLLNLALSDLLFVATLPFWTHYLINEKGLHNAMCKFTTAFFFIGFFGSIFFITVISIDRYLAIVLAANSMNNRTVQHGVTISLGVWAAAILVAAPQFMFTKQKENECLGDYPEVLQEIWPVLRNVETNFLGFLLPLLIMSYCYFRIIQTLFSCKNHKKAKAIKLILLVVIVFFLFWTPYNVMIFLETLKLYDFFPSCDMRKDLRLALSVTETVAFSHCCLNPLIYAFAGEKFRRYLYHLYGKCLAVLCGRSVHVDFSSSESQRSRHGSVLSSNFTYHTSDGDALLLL
Put plainly: NanoBRET screen HiBiT-CX3CR1 in HEK293. The protocol: as §1, §2

T4 sequence (Q9H3N8 whole entry): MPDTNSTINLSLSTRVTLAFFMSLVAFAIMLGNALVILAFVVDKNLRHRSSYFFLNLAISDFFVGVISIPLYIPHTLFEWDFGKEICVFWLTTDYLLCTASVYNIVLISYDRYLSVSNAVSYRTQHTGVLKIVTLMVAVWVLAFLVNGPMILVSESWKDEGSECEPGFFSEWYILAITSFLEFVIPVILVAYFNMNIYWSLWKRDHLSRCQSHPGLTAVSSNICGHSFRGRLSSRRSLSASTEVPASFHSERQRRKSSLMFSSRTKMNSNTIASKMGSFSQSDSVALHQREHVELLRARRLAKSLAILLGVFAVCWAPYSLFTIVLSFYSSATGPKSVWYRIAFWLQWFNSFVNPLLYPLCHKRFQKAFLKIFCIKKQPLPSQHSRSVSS
T2 sequence (Q9H244 whole entry, one chain of several): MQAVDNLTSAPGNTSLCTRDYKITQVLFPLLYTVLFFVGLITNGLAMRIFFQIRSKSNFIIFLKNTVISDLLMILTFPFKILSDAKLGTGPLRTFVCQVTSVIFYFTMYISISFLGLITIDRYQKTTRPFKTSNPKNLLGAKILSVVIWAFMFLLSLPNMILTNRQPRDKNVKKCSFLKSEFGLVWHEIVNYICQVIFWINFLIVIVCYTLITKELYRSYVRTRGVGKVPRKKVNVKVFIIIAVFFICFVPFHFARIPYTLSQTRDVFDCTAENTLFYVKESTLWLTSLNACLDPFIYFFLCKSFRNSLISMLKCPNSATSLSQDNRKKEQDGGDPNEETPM
T1 sequence (Q14416 19-872): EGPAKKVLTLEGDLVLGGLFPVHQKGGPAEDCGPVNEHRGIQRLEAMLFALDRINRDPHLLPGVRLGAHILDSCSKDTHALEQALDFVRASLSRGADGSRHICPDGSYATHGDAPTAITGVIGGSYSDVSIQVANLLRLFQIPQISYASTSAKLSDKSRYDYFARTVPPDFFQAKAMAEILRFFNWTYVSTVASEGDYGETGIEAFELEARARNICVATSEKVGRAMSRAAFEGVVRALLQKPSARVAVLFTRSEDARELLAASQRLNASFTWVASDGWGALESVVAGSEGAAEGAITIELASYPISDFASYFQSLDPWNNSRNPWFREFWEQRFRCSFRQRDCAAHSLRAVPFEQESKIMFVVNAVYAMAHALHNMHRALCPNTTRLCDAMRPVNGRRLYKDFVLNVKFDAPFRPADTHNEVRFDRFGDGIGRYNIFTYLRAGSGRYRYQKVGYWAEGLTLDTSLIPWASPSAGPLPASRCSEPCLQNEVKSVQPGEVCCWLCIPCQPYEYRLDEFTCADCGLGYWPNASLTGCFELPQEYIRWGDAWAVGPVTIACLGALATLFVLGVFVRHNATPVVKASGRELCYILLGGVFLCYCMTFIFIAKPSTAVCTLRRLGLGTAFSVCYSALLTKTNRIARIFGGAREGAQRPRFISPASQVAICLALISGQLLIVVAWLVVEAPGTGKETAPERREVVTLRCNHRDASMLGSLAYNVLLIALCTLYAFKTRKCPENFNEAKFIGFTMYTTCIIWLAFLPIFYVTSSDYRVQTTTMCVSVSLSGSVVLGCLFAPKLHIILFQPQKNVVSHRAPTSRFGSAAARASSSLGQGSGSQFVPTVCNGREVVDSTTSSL

As for `CCOC(=O)c1cc(C#N)c(N2CCC(C(=O)NS(=O)(=O)Cc3ccccc3/C=C/C(=O)NCCNC(=O)CCc3ccc4n3[B-](F)(F)[N+]3=C(c5ccc[nH]5)C=CC3=C4)CC2)nc1C` [AZD1283-1-NB590], the “NanoBRET Fold Response” value is 1.00 in experiment [1] (GRM2, 0.1μM); 0.43 in experiment [1] (GRM2, 1μM); 3.11 in experiment [2] (P2RY12, 0.1μM); 2.18 in experiment [2] (P2RY12, 1μM); 1.06 in experiment [3] (P2RY1, 0.1μM); 1.05 in experiment [3] (P2RY1, 1μM). For the same molecule, the “NanoBRET Fold Response” value in experiment [4] (HRH4, 0.1μM) is 1.16; in experiment [4] (HRH4, 1μM), 1.10; in experiment [5] (HCRTR1, 0.1μM) it was 1.00; in experiment [5] (HCRTR1, 1μM), 1.09; in experiment [6] (CX3CR1, 0.1μM), 1.09; in experiment [6] (CX3CR1, 1μM), 1.08.

Consider `COc1ccc2[nH]c(-c3ccc(CNC(=O)CCOCCOCCOCCOCCNC(=O)CCc4ccc5n4[B-](F)(F)[N+]4=C(c6ccc[nH]6)C=CC4=C5)cc3)c(CCNC(C)=O)c2n1` [AzomelatoninICO9-2-NB590], for which the “NanoBRET Fold Response” value worked out at 1.11 in experiment [1] (0.1μM tracer); 0.95 in experiment [1] (1μM tracer); 1.15 in experiment [2] (0.1μM tracer); 1.05 in experiment [2] (1μM tracer); 0.99 in experiment [3] (0.1μM tracer); 0.99 in experiment [3] (1μM tracer). The “NanoBRET Fold Response” value in experiment [4] (0.1μM tracer) was 0.80; in experiment [4] (1μM tracer), 1.14; in experiment [5] (0.1μM tracer) it was 0.60; in experiment [5] (1μM tracer), 0.95; in experiment [6] (0.1μM tracer), 1.07; in experiment [6] (1μM tracer) it was 1.19.

`CC(C)N(CC[C@H](c1ccccc1)c1cc(CCNC(=O)CCOCCOCCOCCOCCNC(=O)CCc2ccc3n2[B-](F)(F)[N+]2=C(c4ccc[nH]4)C=CC2=C3)ccc1O)C(C)C` [Tolterodine-2-NB590]: the “NanoBRET Fold Response” value is 0.99 in experiment [1] (GRM2, tracer 0.1μM); 0.97 in experiment [1] (GRM2, tracer 1μM); 0.93 in experiment [2] (P2RY12, tracer 0.1μM); 0.95 in experiment [2] (P2RY12, tracer 1μM); 0.97 in experiment [3] (P2RY1, tracer 0.1μM); 1.00 in experiment [3] (P2RY1, tracer 1μM). For the same molecule, the “NanoBRET Fold Response” value in experiment [4] (HRH4, tracer 0.1μM) was 1.05; in experiment [4] (HRH4, tracer 1μM) it was 1.03; in experiment [5] (HCRTR1, tracer 0.1μM) it was 1.04; in experiment [5] (HCRTR1, tracer 1μM), 1.16; in experiment [6] (CX3CR1, tracer 0.1μM) it was 1.32; in experiment [6] (CX3CR1, tracer 1μM), 1.06.

As for `CN1CCN(C2=Nc3cc(Cl)ccc3N(CC(=O)NCCOCCOCCOCCOCCNC(=O)CCc3ccc4n3[B-](F)(F)[N+]3=C(c5ccc[nH]5)C=CC3=C4)c3ccccc32)CC1` [Clozapine-c-2-NB590], the “NanoBRET Fold Response” value is 0.97 in experiment [1] (GRM2, 0.1μM tracer); 1.00 in experiment [1] (GRM2, 1μM tracer); 0.99 in experiment [2] (P2RY12, 0.1μM tracer); 0.95 in experiment [2] (P2RY12, 1μM tracer); 0.97 in experiment [3] (P2RY1, 0.1μM tracer); 1.03 in experiment [3] (P2RY1, 1μM tracer). Moreover, the “NanoBRET Fold Response” value in experiment [4] (HRH4, 0.1μM tracer) amounted to 1.04; in experiment [4] (HRH4, 1μM tracer), 0.97; in experiment [5] (HCRTR1, 0.1μM tracer) it was 0.98; in experiment [5] (HCRTR1, 1μM tracer) it was 1.00; in experiment [6] (CX3CR1, 0.1μM tracer) it was 0.95; in experiment [6] (CX3CR1, 1μM tracer), 0.92.

`N#CN=C(NCCCOc1cccc(CN2CCCCC2)c1)NCCNC(=O)CCOCCOCCOCCOCCNC(=O)CCc1ccc2n1[B-](F)(F)[N+]1=C(c3ccc[nH]3)C=CC1=C2` [Aminopotentidine-2-NB590]: the “NanoBRET Fold Response” value in experiment [1] (GRM2, tracer 0.1μM) stood at 1.05; in experiment [1] (GRM2, tracer 1μM) it was 0.99; in experiment [2] (P2RY12, tracer 0.1μM), 0.94; in experiment [2] (P2RY12, tracer 1μM) it was 0.99; in experiment [3] (P2RY1, tracer 0.1μM), 1.02; in experiment [3] (P2RY1, tracer 1μM), 1.02. For the same molecule, the “NanoBRET Fold Response” value in experiment [4] (HRH4, tracer 0.1μM) came out at 0.91; in experiment [4] (HRH4, tracer 1μM), 1.02; in experiment [5] (HCRTR1, tracer 0.1μM), 0.98; in experiment [5] (HCRTR1, tracer 1μM) it was 0.95; in experiment [6] (CX3CR1, tracer 0.1μM), 1.00; in experiment [6] (CX3CR1, tracer 1μM), 1.05.

Regarding `COc1ccc2c(n1)c(CCNC(C)=O)cn2CCNC(=O)CCc1ccc2n1[B-](F)(F)[N+]1=C(c3ccc[nH]3)C=CC1=C2` [Azamelatonin-1-NB590], the “NanoBRET Fold Response” value is listed as 1.19 in experiment [1] (0.1μM tracer); 1.00 in experiment [1] (1μM tracer); 1.02 in experiment [2] (0.1μM tracer); 1.02 in experiment [2] (1μM tracer); 0.99 in experiment [3] (0.1μM tracer); 0.99 in experiment [3] (1μM tracer). For the same molecule, the “NanoBRET Fold Response” value in experiment [4] (0.1μM tracer) amounted to 0.92; in experiment [4] (1μM tracer), 0.92; in experiment [5] (0.1μM tracer), 0.93; in experiment [5] (1μM tracer), 0.84; in experiment [6] (0.1μM tracer) it was 0.93; in experiment [6] (1μM tracer) it was 1.05.
